The source of these data is patent US12398107B2, “Fungicidal nitroanilino substituted pyrazoles” (FMC Corporation, priority 2018, dated 2025).

Holding throughout (assay type): in vivo
In one assay the test system is Septoria tritici. Briefly: Test A: wheat leaf blotch, preventive spray on wheat seedlings. Particulars: 50 ppm, 100 = 100% disease control, 0 = no control relative to controls; for pest or weed control at 50 ppm: Zymoseptoria tritici, read-out: Test A disease control rating (wheat leaf blotch). In short, it runs like this: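 Compounds were suspended in acetone/water (50/50) with 250 ppm PEG400 and sprayed to run-off on wheat seedlings. The next day the seedlings were inoculated with Septoria tritici spores, held 48 h at 24 °C in saturated humidity, then 17 days at 20 °C. Disease control was rated 0–100 relative to controls.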

The test system of assay [1] is Puccinia recondita f. sp. tritici. The assay can be described thus: Test B: wheat leaf rust, preventive spray on wheat seedlings. The following applies: 50 ppm, 100 = 100% disease control, 0 = no control relative to controls; for pest or weed control at 50 ppm: read-out: Test B disease control rating (wheat leaf rust). The procedure, abridged:
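Compounds in acetone/water (50/50) with 250 ppm PEG400, sprayed to run-off on wheat seedlings at stated ppm; inoculated next day with P. recondita spores. Held 24 h saturated at 20° C., then 7 days in growth chamber at 20° C.; rating 0–100 = % disease control vs controls.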

The test system of assay [2] is Blumeria graminis f. sp. tritici. Briefly: Test C: wheat powdery mildew, preventive spray on wheat seedlings. The following applies: 50 ppm, rated after 8 days, 100 = 100% disease control, 0 = no control; for pest or weed control at 50 ppm: Blumeria graminis, 192 h, read-out: Test C disease control rating (wheat powdery mildew). The procedure, abridged: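 Compound dissolved in acetone (3% of final volume), then suspended in 50/50 acetone/water with 250 ppm PEG400 and sprayed to run-off on wheat seedlings. Inoculated next day with B. graminis f. sp. tritici spore dust, kept 8 days at 20° C; visual rating, 100 = full control, 0 = none, relative to controls.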

A further assay deals with Phakopsora pachyrhizi. Briefly: Test D: Asian soybean rust, preventive spray on soybean seedlings. The following applies: 50 ppm, 100 = 100% disease control, 0 = no control; for pest or weed control at 50 ppm: Phakopsora pachyrhizi, read-out: Test D disease control rating (Asian soybean rust). The procedure, abridged: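 Soybean seedlings sprayed to run-off with compound suspension (ppm, in 50/50 acetone/water with 250 ppm PEG400), inoculated next day with P. pachyrhizi spores, held 24 h saturated at 22°C then 8 days at 22°C. Visual rating 0-100% disease control relative to controls.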

In the next assay the test system is Botrytis cinerea. Briefly: Test E: tomato Botrytis, preventive spray on tomato seedlings. The following applies: 50 ppm, 100 = 100% disease control, 0 = no control; for pest or weed control at 50 ppm: Botrytis cinerea, read-out: Test E disease control rating (tomato Botrytis). In short, it runs like this: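 Tomato seedlings sprayed to run-off with compound (ppm) in acetone/water with 250 ppm PEG400, then inoculated next day with B. cinerea spores. Held 48 h at 20 °C in saturated atmosphere, then 3 days at 24 °C. Visual rating 0–100% disease control relative to untreated controls.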

A further assay concerns Alternaria solani. The assay can be described thus: Test F: tomato early blight, preventive spray on tomato seedlings. The following applies: 50 ppm, 100 = 100% disease control, 0 = no control; for pest or weed control at 50 ppm: Alternaria solani, read-out: Test F disease control rating (tomato early blight). The procedure, abridged:
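Compounds in acetone/water (50/50) with 250 ppm PEG400, dosed in ppm, sprayed to run-off on tomato seedlings; next day inoculated with A. solani spores. Held 48 h saturated at 27° C, then 3 days at 20° C; visual rating 0–100% disease control relative to controls.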

`COc1ccc(-c2c(C)nn(C)c2Nc2c(F)cccc2[N+](=O)[O-])c(Cl)c1` [Compound 27]: in the assay on Septoria tritici, the “Test A disease control rating (wheat leaf blotch)” value (shortened to “Test A disease control rating”) is 100%. The “Test B disease control rating (wheat leaf rust)” value (shortened to “Test B disease control rating”) in assay [1] turned out to be 100%. The “Test C disease control rating (wheat powdery mildew)” value (shortened to “Test C disease control rating”) in assay [2] turned out to be 91%. The “Test D disease control rating (Asian soybean rust)” value (“Test D disease control rating” for short) in the assay on Phakopsora pachyrhizi is listed as 87%. In the assay with Botrytis cinerea, the “Test E disease control rating (tomato Botrytis)” value (“Test E disease control rating” below) is 100%. Moreover, the “Test F disease control rating (tomato early blight)” value (“Test F disease control rating” for short) with Alternaria solani is reported as 99%.

With `Cc1nn(C)c(Nc2ccccc2[N+](=O)[O-])c1-c1ccc(F)cc1Br` [Compound 139], the “Test A disease control rating” value in the assay on Septoria tritici is 98%. Further, the “Test B disease control rating” value in assay [1] amounted to 86%. In addition, the “Test C disease control rating” value in assay [2] is recorded as 76%. Besides, the “Test D disease control rating” value in the assay on Phakopsora pachyrhizi stood at 0%. Besides, the “Test E disease control rating” value in the assay with Botrytis cinerea was 100%. Further, in the assay on Alternaria solani, the “Test F disease control rating” value came to 33%.

For the compound `Cc1nn(C)c(Nc2c(Cl)cc(Cl)cc2[N+](=O)[O-])c1-c1ccc(C#N)cc1Cl` [Compound 116], the “Test A disease control rating” value in the assay with Septoria tritici worked out at 99%. Besides, the “Test B disease control rating” value in assay [1] was 99%. Moreover, in assay [2], the “Test C disease control rating” value is listed as 56%. The “Test D disease control rating” value in the assay on Phakopsora pachyrhizi worked out at 0%. The “Test E disease control rating” value with Botrytis cinerea is listed as 63%. Also, in the assay on Alternaria solani, the “Test F disease control rating” value was 82%.

Take `COc1cc(F)c(-c2c(C)nn(C)c2Nc2c(F)cc(F)cc2[N+](=O)[O-])c(F)c1` [Compound 84]: the “Test A disease control rating” value in the assay with Septoria tritici was 100%. Besides, the “Test B disease control rating” value in assay [1] worked out at 100%. Moreover, in assay [2], the “Test C disease control rating” value is listed as 99%. Also, the “Test D disease control rating” value in the assay on Phakopsora pachyrhizi came out at 48%. For the same compound, in the assay on Botrytis cinerea, the “Test E disease control rating” value is recorded as 90%. For the same compound, in the assay on Alternaria solani, the “Test F disease control rating” value was determined as 99%.

Take `Cc1nn(C)c(Nc2c(F)cc(Cl)cc2[N+](=O)[O-])c1-c1c(F)cccc1F` [Compound 98]: the “Test A disease control rating” value in the assay on Septoria tritici turned out to be 100%. Also, the “Test B disease control rating” value in assay [1] was determined as 97%. The “Test C disease control rating” value in assay [2] is listed as 93%. Further, the “Test D disease control rating” value with Phakopsora pachyrhizi was 0%. For the same compound, the “Test E disease control rating” value with Botrytis cinerea was 99%. The “Test F disease control rating” value in the assay on Alternaria solani is listed as 98%.

For `COc1ccc(-c2c(C)nn(C)c2Nc2c(F)cc(Br)cc2[N+](=O)[O-])c(Cl)c1` [Compound 182], the “Test A disease control rating” value in the assay on Septoria tritici is 100%. The “Test B disease control rating” value in assay [1] came out at 99%. Further, the “Test C disease control rating” value in assay [2] was found to be 76%. For the same compound, the “Test D disease control rating” value with Phakopsora pachyrhizi is 0%. Further, the “Test E disease control rating” value with Botrytis cinerea is listed as 100%. The “Test F disease control rating” value with Alternaria solani was 99%.

As to `Cc1nn(C)c(Nc2c(Cl)cccc2[N+](=O)[O-])c1-c1c(F)cc(F)cc1Cl` [Compound 152], in the assay on Septoria tritici, the “Test A disease control rating” value amounted to 99%. The “Test B disease control rating” value in assay [1] was 100%. Further, in assay [2], the “Test C disease control rating” value is given as 98%. Further, the “Test D disease control rating” value with Phakopsora pachyrhizi stood at 91%. In addition, the “Test E disease control rating” value in the assay on Botrytis cinerea is given as 99%. Also, in the assay on Alternaria solani, the “Test F disease control rating” value was determined as 92%.

As to `Cc1cccc([N+](=O)[O-])c1Nc1c(-c2ccc(F)cc2Br)c(C)nn1C` [Compound 42], the “Test A disease control rating” value in the assay with Septoria tritici was 100%. Besides, the “Test B disease control rating” value in assay [1] is recorded as 100%. Besides, the “Test C disease control rating” value in assay [2] amounted to 96%. Also, the “Test D disease control rating” value with Phakopsora pachyrhizi turned out to be 0%. Further, the “Test E disease control rating” value in the assay on Botrytis cinerea worked out at 91%. Also, the “Test F disease control rating” value in the assay on Alternaria solani turned out to be 0%.

Turning to `CCc1nn(C)c(Nc2c(Cl)cc(C)cc2[N+](=O)[O-])c1-c1ccc(F)cc1F` [Compound 16], in the assay with Septoria tritici, the “Test A disease control rating” value is given as 100%. Besides, the “Test B disease control rating” value in assay [1] worked out at 99%. Further, the “Test C disease control rating” value in assay [2] is given as 98%. Moreover, the “Test D disease control rating” value with Phakopsora pachyrhizi amounted to 50%. For the same compound, the “Test E disease control rating” value in the assay on Botrytis cinerea is recorded as 99%. Further, the “Test F disease control rating” value with Alternaria solani came out at 0%.

For the compound `Cc1nn(C)c(Nc2ccccc2[N+](=O)[O-])c1-c1c(F)cc(Cl)cc1F` [Compound 168], in the assay on Septoria tritici, the “Test A disease control rating” value came out at 100%. The “Test B disease control rating” value in assay [1] was 74%. The “Test C disease control rating” value in assay [2] worked out at 97%. Moreover, in the assay with Phakopsora pachyrhizi, the “Test D disease control rating” value is 0%. For the same compound, in the assay on Botrytis cinerea, the “Test E disease control rating” value came to 99%. The “Test F disease control rating” value in the assay on Alternaria solani amounted to 40%.

Regarding `Cc1nn(C)c(Nc2ccc(Cl)cc2[N+](=O)[O-])c1-c1ccc(F)cc1F` [Compound 78], the “Test A disease control rating” value in the assay on Septoria tritici is 100%. In assay [1], the “Test B disease control rating” value was 89%. Moreover, in assay [2], the “Test C disease control rating” value amounted to 95%. Also, the “Test D disease control rating” value in the assay on Phakopsora pachyrhizi was 0%. Moreover, in the assay on Botrytis cinerea, the “Test E disease control rating” value was found to be 68%. For the same compound, the “Test F disease control rating” value in the assay on Alternaria solani turned out to be 0%.

Regarding `Cc1nn(C)c(Nc2c(F)cc(F)cc2[N+](=O)[O-])c1-c1ccc(F)cc1F` [Compound 58], the “Test A disease control rating” value in the assay on Septoria tritici came out at 100%. Also, the “Test B disease control rating” value in assay [1] was found to be 100%. For the same compound, the “Test C disease control rating” value in assay [2] is 99%. Also, the “Test D disease control rating” value in the assay on Phakopsora pachyrhizi is recorded as 36%. For the same compound, the “Test E disease control rating” value in the assay on Botrytis cinerea was determined as 99%. The “Test F disease control rating” value with Alternaria solani stood at 99%.

For the compound `Cc1nn(C)c(Nc2c(Cl)cc(Cl)cc2[N+](=O)[O-])c1-c1ccc(F)cc1Br` [Compound 37], the “Test A disease control rating” value in the assay on Septoria tritici was determined as 100%. Further, the “Test B disease control rating” value in assay [1] is on record as 100%. Further, in assay [2], the “Test C disease control rating” value is on record as 98%. In the assay on Phakopsora pachyrhizi, the “Test D disease control rating” value is reported as 0%. Further, the “Test E disease control rating” value in the assay with Botrytis cinerea amounted to 88%. Further, the “Test F disease control rating” value with Alternaria solani was 78%.

For the compound `COc1cc(F)c(Nc2c(-c3ccc(F)cc3F)c(C)nn2C)c([N+](=O)[O-])c1` [Compound 57, 4-(2,4-difluorophenyl)-N-(2-fluoro-4-methoxy-6-nitrophenyl)-1,3-dimethyl-1H-pyrazol-5-amine], the pest or weed control at 50 ppm amounted to 100% in the assay on Septoria tritici; 100% in assay [1]; 100% in assay [2]; 96% in the assay on Phakopsora pachyrhizi; 100% in the assay on Botrytis cinerea; 100% in the assay on Alternaria solani.

As for `Cc1nn(C)c(Nc2c(Cl)cc(F)cc2[N+](=O)[O-])c1-c1ccc(F)cc1Cl` [Compound 19, N-(2-chloro-4-fluoro-6-nitrophenyl)-4-(2-chloro-4-fluorophenyl)-1,3-dimethyl-1H-pyrazol-5-amine], the pest or weed control at 50 ppm amounted to 100% in the assay on Septoria tritici; 100% in assay [1]; 100% in assay [2]; 98% in the assay on Phakopsora pachyrhizi; 100% with Botrytis cinerea; 99% in the assay with Alternaria solani.

On to `COc1ccc(-c2c(C)nn(C)c2Nc2c(Cl)cccc2[N+](=O)[O-])c(C)c1` [Compound 35], for which, in the assay on Septoria tritici, the “Test A disease control rating” value came out at 99%. In assay [1], the “Test B disease control rating” value was 85%. The “Test C disease control rating” value in assay [2] is on record as 0%. Besides, in the assay on Phakopsora pachyrhizi, the “Test D disease control rating” value came out at 0%. Besides, in the assay with Botrytis cinerea, the “Test E disease control rating” value is reported as 0%. Further, the “Test F disease control rating” value in the assay on Alternaria solani is 0%.

Take `COc1ccc(-c2c(C)nn(C)c2Nc2c(Cl)cc(Cl)cc2[N+](=O)[O-])c(Cl)c1` [Compound 65]: the “Test A disease control rating” value in the assay on Septoria tritici is reported as 94%. In addition, in assay [1], the “Test B disease control rating” value is reported as 89%. Besides, the “Test C disease control rating” value in assay [2] turned out to be 56%. The “Test D disease control rating” value in the assay on Phakopsora pachyrhizi turned out to be 66%. Also, the “Test E disease control rating” value in the assay with Botrytis cinerea is listed as 16%. The “Test F disease control rating” value in the assay on Alternaria solani amounted to 46%.
